Experimental data taken from patent US20020026053A1, “Novel 3-(substituted) -2- indolinones compounds and use thereof as inhibitors of protein kinase activity” (priority 1997, published 2002).

Tests used:
[1] = molecular target: T1, EGFR (Homo sapiens, UniProt P00533); test: Biochemical EGFR Assay; parameters: concentration or dose not given beside the values
T1 construct: endogenous in cells; host or cells: A431 cells (lysate, captured with SUMO1 anti-EGFR antibody)
Procedure, shortened: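 Readout is ABTS absorbance at 410 nm after anti-phosphotyrosine and HRP-antibody detection of EGFR autophosphorylation. The kinase was immunocaptured from A431 lysate, exposed 30 min to test compound diluted 1:10 in TBS, then phosphorylated for 5 min with ATP/MnCl2 before an EDTA stop.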

[2] = system: PDGF-R; test: PDGF-R Assay (cellular ELISA, U1242 cells); type: cell-based; parameters: concentration or dose not given beside the values
Procedure, shortened: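 Cellular ELISA for receptor autophosphorylation: after 2 hr test-compound treatment of serum-free U1242 cells at 37°C, ligand is added for 5–10 min, cells are lysed (HNTG) and receptor captured by specific antibody. Anti-phosphotyrosine plus secondary antibody with ABTS colour read at 410/630 nm, compared with compound-free control cells.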

T1 sequence (P00533 25-1210): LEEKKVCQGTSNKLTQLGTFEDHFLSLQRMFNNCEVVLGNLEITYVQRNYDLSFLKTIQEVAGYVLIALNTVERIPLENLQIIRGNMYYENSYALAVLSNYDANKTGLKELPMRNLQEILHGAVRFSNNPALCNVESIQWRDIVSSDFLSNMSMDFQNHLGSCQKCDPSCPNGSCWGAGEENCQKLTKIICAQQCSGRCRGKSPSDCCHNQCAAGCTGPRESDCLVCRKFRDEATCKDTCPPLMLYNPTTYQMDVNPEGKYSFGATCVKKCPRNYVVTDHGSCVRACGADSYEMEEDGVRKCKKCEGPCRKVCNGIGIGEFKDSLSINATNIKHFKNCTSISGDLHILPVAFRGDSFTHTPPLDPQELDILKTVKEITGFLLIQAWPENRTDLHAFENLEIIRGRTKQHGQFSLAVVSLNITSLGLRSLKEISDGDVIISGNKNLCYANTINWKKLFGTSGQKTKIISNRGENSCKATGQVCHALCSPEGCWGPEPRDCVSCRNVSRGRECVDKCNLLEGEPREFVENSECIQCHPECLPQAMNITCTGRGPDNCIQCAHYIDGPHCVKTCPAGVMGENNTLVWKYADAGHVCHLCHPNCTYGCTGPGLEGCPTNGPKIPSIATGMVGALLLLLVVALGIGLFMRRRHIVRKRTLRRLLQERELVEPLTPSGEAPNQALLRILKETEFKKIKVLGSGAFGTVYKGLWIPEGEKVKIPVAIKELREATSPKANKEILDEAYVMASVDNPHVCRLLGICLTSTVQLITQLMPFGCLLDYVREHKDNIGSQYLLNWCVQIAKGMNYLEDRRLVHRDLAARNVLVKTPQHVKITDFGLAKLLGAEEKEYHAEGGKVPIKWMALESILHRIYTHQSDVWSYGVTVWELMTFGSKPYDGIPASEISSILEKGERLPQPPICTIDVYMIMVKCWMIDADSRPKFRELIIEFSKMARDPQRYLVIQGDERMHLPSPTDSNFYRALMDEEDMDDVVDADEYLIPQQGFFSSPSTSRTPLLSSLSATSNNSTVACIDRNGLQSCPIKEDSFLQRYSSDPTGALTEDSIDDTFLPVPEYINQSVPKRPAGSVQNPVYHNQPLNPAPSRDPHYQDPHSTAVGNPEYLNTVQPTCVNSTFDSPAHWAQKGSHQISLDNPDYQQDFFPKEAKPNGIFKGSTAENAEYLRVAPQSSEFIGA

Structure (SMILES)	Biochem EGFR % Inhibition (P.167) [1] [%]	PDGF Kinase % Inhibition (P.119) [2] [%]
Cc1c(O)ccc(C=C2C(=O)Nc3c(Br)cc(Br)c(C)c32)c1O [10718/H09]	34.2	–
Cc1c(Br)cc(Br)c2c1C(=Cc1ccco1)C(=O)N2 [10718/H10]	−5.7	–
Cc1c(Br)cc(Br)c2c1C(=Cc1ccc([N+](=O)[O-])o1)C(=O)N2 [10718/H11]	4.4	–
CCOc1ccc(C=C2C(=O)Nc3c(Br)cc(Br)c(C)c32)cc1OC [10719/H02]	43.9	–
Cc1c(Br)cc(Br)c2c1C(=Cc1ccc(O)c(O)c1)C(=O)N2 [10719/H03]	25.1	–
COc1ccc(C=C2C(=O)Nc3c(Br)cc(Br)c(C)c32)c(OC)c1 [10719/H04]	−0.5	–
CCc1c(C)[nH]c(C=C2C(=O)Nc3c(Br)cc(Br)c(C)c32)c1C [10719/H05]	7.9	–
COc1cc(OC)c(C=C2C(=O)Nc3c(Br)cc(Br)c(C)c32)c(OC)c1 [10719/H06]	−28.0	–
CCN(CC)c1ccc(C=C2C(=O)Nc3c(Br)cc(Br)c(C)c32)c(O)c1 [10734/H05]	4.7	−14.4
Cc1c(Br)cc(Br)c2c1C(=Cc1ccc([N+](=O)[O-])cc1)C(=O)N2 [10734/H06]	−32.2	−26.3
Cc1c(Br)cc(Br)c2c1C(=Cc1cc(Br)cc(Br)c1O)C(=O)N2 [10734/H07]	6.6	−6.4
Cc1c(Br)cc(Br)c2c1C(=Cc1cccc(F)c1O)C(=O)N2 [10734/H08]	2.9	2.9
Cc1c(Br)cc(Br)c2c1C(=Cc1ccc(O)c(Br)c1)C(=O)N2 [10734/H09]	−4.2	−19.2
Cc1c(Br)cc(Br)c2c1C(=Cc1ccc(C(C)(C)C)cc1)C(=O)N2 [10734/H10]	−12.6	−17.9
Cc1c(Br)cc(Br)c2c1C(=Cc1ccc(Br)s1)C(=O)N2 [10734/H11]	−8.5	−17.9
Cc1ccccc1C=C1C(=O)Nc2c(Br)cc(Br)cc21 [10735/A02]	14.3	14.3
O=C1Nc2c(Br)cc(Br)cc2C1=Cc1ccc(F)c(F)c1 [10735/A03]	28.8	21.9
O=C1Nc2c(Br)cc(Br)cc2C1=Cc1cc(F)cc(F)c1 [10735/A04]	5.0	18.8
O=C1Nc2c(Br)cc(Br)cc2C1=Cc1cccc(C(F)(F)F)c1 [10735/A05]	41.5	0.9
O=C1Nc2c(Br)cc(Br)cc2C1=Cc1cc(C(F)(F)F)cc(C(F)(F)F)c1 [10735/A06]	24.9	4.7
N#Cc1ccccc1C=C1C(=O)Nc2c(Br)cc(Br)cc21 [10735/A07]	18.7	0.5
O=C1Nc2c(Br)cc(Br)cc2C1=Cc1c(F)cccc1F [10735/A08]	10.9	5.3
O=C1Nc2c(Br)cc(Br)cc2C1=Cc1cccc2ccccc12 [10735/A09]	13.0	1.9
O=C1Nc2c(Br)cc(Br)cc2C1=Cc1ccc(Cl)cc1Cl [10735/A10]	10.2	−0.2

Structure (SMILES)	Biochem EGFR % Inhibition (P.167) [1] [%]	PDGF Kinase % Inhibition (P.119) [2] [%]
O=C1Nc2c(Br)cc(Br)cc2C1=Cc1ccc(-c2ccccc2)cc1 [10735/A11]	3.3	5.7
Cc1ccccc1C=C1C(=O)Nc2ccc(I)cc21 [10735/B02]	39.1	22.6
O=C1Nc2ccc(I)cc2C1=Cc1ccc(F)c(F)c1 [10735/B03]	42.9	16.4
O=C1Nc2ccc(I)cc2C1=Cc1cc(F)cc(F)c1 [10735/B04]	49.2	2.9
O=C1Nc2ccc(I)cc2C1=Cc1cccc(C(F)(F)F)c1 [10735/B05]	61.6	17.4
O=C1Nc2ccc(I)cc2C1=Cc1cc(C(F)(F)F)cc(C(F)(F)F)c1 [10735/B06]	49.4	14.0
N#Cc1ccccc1C=C1C(=O)Nc2ccc(I)cc21 [10735/B07]	47.7	0.5
O=C1Nc2ccc(I)cc2C1=Cc1c(F)cccc1F [10735/B08]	24.5	9.8
O=C1Nc2ccc(I)cc2C1=Cc1cccc2ccccc12 [10735/B09]	39.8	−0.5
O=C1Nc2ccc(I)cc2C1=Cc1ccc(Cl)cc1Cl [10735/B10]	30.1	3.6
O=C1Nc2ccc(I)cc2C1=Cc1ccc(-c2ccccc2)cc1 [10735/B11]	52.4	−8.8
Cc1ccccc1C=C1C(=O)Nc2ccc(Br)c(C)c21 [10735/C02]	1.6	4.7
Cc1c(Br)ccc2c1C(=Cc1ccc(F)c(F)c1)C(=O)N2 [10735/C03]	8.0	4.3
Cc1c(Br)ccc2c1C(=Cc1cc(F)cc(F)c1)C(=O)N2 [10735/C04]	5.8	12.9
Cc1c(Br)ccc2c1C(=Cc1cccc(C(F)(F)F)c1)C(=O)N2 [10735/C05]	14.5	20.5
Cc1c(Br)ccc2c1C(=Cc1cc(C(F)(F)F)cc(C(F)(F)F)c1)C(=O)N2 [10735/C06]	8.5	25.0
Cc1c(Br)ccc2c1C(=Cc1ccccc1C#N)C(=O)N2 [10735/C07]	−4.9	11.9
Cc1c(Br)ccc2c1C(=Cc1c(F)cccc1F)C(=O)N2 [10735/C08]	−11.3	−2.6
Cc1c(Br)ccc2c1C(=Cc1cccc3ccccc13)C(=O)N2 [10735/C09]	−22.1	−2.6
Cc1c(Br)ccc2c1C(=Cc1ccc(Cl)cc1Cl)C(=O)N2 [10735/C10]	−14.4	4.0
Cc1c(Br)ccc2c1C(=Cc1ccc(-c3ccccc3)cc1)C(=O)N2 [10735/C11]	−6.4	−2.9
CNS(=O)(=O)c1ccc2c(c1)C(=Cc1ccccc1C)C(=O)N2 [10735/D02]	20.3	11.6
CNS(=O)(=O)c1ccc2c(c1)C(=Cc1ccc(F)c(F)c1)C(=O)N2 [10735/D03]	7.5	12.9
